# Test results from US20230014181A1, “CULTURE SYSTEM AND METHODS FOR IMPROVED MODELING OF NEUROLOGICAL CONDITIONS” (Genentech, Inc., priority 2021, published 2023).
# Structures can show the parent of a compound that is named as a salt. Where two headings read alike, the source gives them in different places.
# What was measured:
# [1] = test system: human iPSC neurons, astrocytes and microglia treated with 5 μM sAβ42s; assay: Focused small molecule screen, triple culture (neuron, astrocyte, microglia), rescue from sAβ42s toxicity; format: cell-based; conditions: for percent rescue from sAβ42s toxicity at 0.78 µM / percent rescue from sAβ42s toxicity at 50 µM: Homo sapiens, iPSC
# Protocol: (§1) FIGS. 11A-11D show synapse % rescue versus MAP2% rescue (FIGS. 11A-11B) and beta III tubulin % rescue versus MAP2% rescue (FIGS. 11C-11D), in neurons and astrocytes (FIGS. 11A and 11C) or neurons, astrocytes, and microglia (FIGS. 11B and 11D) treated with 5 μM sAβ42s and small molecules from a focused screen of known neuroprotective agents at multiple concentrations (50 μM, 25 μM, 12.5 μM and 6.25 μM (double culture), 50 μM, 12.5 μM, 3.1 μM and 0.78 μM (triple culture). Small molecules that prevented toxicity in dendrites (MAP2), synapses (Synapsin 1/2), cell count (CUX2), or axons ([…]) at or above 30% were considered hits (red dotted line).
# Frozen cells were thawed and immediately seeded at a density of 8,000 cells/well of a 384-well plate onto 8-week old neuron-astrocyte co-culture in Microglia media (BrainPhys™ neuronal media (Stem Cell Technologies) supplemented with 1× B27 with vitamin A, 1×N2 Plus Media Supplement (R&D Systems), 20 ng/mL BDNF, 20 ng/mL GDNF, 1 mM creatine, 200 nM L-ascorbic acid, 1 μg/mL mouse laminin, 0.5 mM GlutaMAX™ (Thermofisher), 0.5× penicillin-streptomycin, 1× normocin, 5 ng/mL TGF-β, 100 ng/mL human IL-34, 1.5 μg/mL cholesterol, 1 ng/mL gondoic acid, 100 ng/mL oleic acid, 460 μM thioglycerol, 1× insulin-transferrin-selenium, 25 ng/mL rhM-CSF, 5.4 μg/mL human insulin solution).
# (§2) In double (neuron, astrocyte) and triple (neuron, astrocyte, microglia) cultures, each small molecule listed in Table 1 was tested in the AD model paradigm at up to four concentrations. Molecules that characterized ≥30% rescue in any of the four measurements of dendrites area (MAP2), synapses count (synapsin 1/2), or cell count (CUX2), or axon area (Beta III Tubulin; “BT3”)) were classified as hits (FIGS. 11A-11D, Table 2, and Table 3).
# [2] = test system: human iPSC neurons and astrocytes treated with 5 μM sAβ42s; assay: Focused small molecule screen, double culture (neuron, astrocyte), rescue from sAβ42s toxicity, high content imaging; format: cell-based; conditions: double culture, 5 μM sAβ42s; for percent rescue from sAβ42s toxicity at 25 µM / percent rescue from sAβ42s toxicity at 50 µM: Homo sapiens, iPSC
# Protocol: as §1
# Neurons from both NSC lines were evaluated by immunofluorescence staining. Briefly, cells were fixed with 4% PFA and 4% sucrose at room temperature for 20 minutes using Bravo automation. Fixed cells were then washed 2 times with PBS using Biotek 406 microplate washer (Beckman Coulter), followed by permeabilization and blocking by incubation with a solution containing 1×PBS, 0.1% Triton X-100, 2% donkey serum, and 1% BSA at room temperature for 30 minutes. Blocking solution was removed and cells were incubated with primary antibodies in blocking solution overnight at 4° C. After washing 6 times with PBS on Biotek 406 cell plate washer (Beckman Coulter), cells were then incubated with fluorophore-conjugated secondary antibodies for 1 hour at room temperature in the dark to avoid photobleaching. Cells were then washed 6 more times in with PBS before imaging. Fluorescent images were captured using IN Cell 6000 confocal microscope (GE Healthcare Life Sciences). The image analysis was performed with IN Cell 6000 analysis software.
# Prior to experimentation, media volume in wells containing neurons was equalized with liquid handling automation (Bravo) in order to ensure precise control of concentrations. All Aβ42 oligomers, anti-Aβ, small molecules, inflammatory cytokines were prepared at 10× concentration and added to Neuronal Culture Media at an appropriate volume. For the repeated dosing experiments, the media were refreshed 50% at each dosing first, before adding Aβ42 oligomers, and/or anti-Aβ antibody at the specified final concentration.
# as §2
# [3] = 25 μM compound, read-out: % B3T rescue
# [4] = 25 μM compound, read-out: % Cux2 rescue
# [5] = 25 μM compound, read-out: % MAP2 rescue
# [6] = 25 μM compound, read-out: % Synapse rescue
# [7] = 50 μM compound, read-out: % B3T rescue
# [8] = 50 μM compound, read-out: % Cux2 rescue
# [9] = 50 μM compound, read-out: % MAP2 rescue
# [10] = 50 μM compound, read-out: % Synapse rescue
# [11] = 50.00 μM compound, read-out: % B3T rescue
# [12] = 50.00 μM compound, read-out: % MAP2 rescue
# [13] = 50.00 μM compound, read-out: % Synapse rescue
compound,measurement,setting,value
CN(C)S(=O)(=O)c1ccc2c(c1)/C(=C/c1cc3c([nH]1)CCCC3)C(=O)N2 [SU6656],% B3T rescue,[1]; 0.78 μM compound,80%
same,% MAP2 rescue,[1]; 0.78 μM compound,58%
same,% Synapse rescue,[1]; 0.78 μM compound,51%
same,% B3T rescue,[1]; 3.13 μM compound,92%
same,% MAP2 rescue,[1]; 3.13 μM compound,72%
same,% Synapse rescue,[1]; 3.13 μM compound,64%
same,% B3T rescue,[1]; 12.50 μM compound,71%
same,% MAP2 rescue,[1]; 12.50 μM compound,53%
same,% Synapse rescue,[1]; 12.50 μM compound,49%
same,% B3T rescue,[1]; 50.00 μM compound,48%
same,% MAP2 rescue,[1]; 50.00 μM compound,40%
same,% Synapse rescue,[1]; 50.00 μM compound,36%
same,% B3T rescue,[2]; 6.25 μM compound,4%
same,% Cux2 rescue,[2]; 6.25 μM compound,101%
same,% MAP2 rescue,[2]; 6.25 μM compound,5%
same,% Synapse rescue,[2]; 6.25 μM compound,13%
same,% B3T rescue,[2]; 12.5 μM compound,3%
same,% Cux2 rescue,[2]; 12.5 μM compound,120%
same,% MAP2 rescue,[2]; 12.5 μM compound,4%
same,% Synapse rescue,[2]; 12.5 μM compound,11%
same,% B3T rescue,[2]; 25 μM compound,−37%
same,% Cux2 rescue,[2]; 25 μM compound,126%
same,% MAP2 rescue,[2]; 25 μM compound,3%
same,% Synapse rescue,[2]; 25 μM compound,15%
same,% B3T rescue,[2]; 50 μM compound,−188%
same,% Cux2 rescue,[2]; 50 μM compound,106%
same,% MAP2 rescue,[2]; 50 μM compound,3%
same,% Synapse rescue,[2]; 50 μM compound,11%
COc1cccc2c1C(=O)c1c(O)c3c(c(O)c1C2=O)C[C@@](O)(C(C)=O)C[C@@H]3O[C@H]1C[C@H](N)[C@H](O)[C@H](C)O1 [Daunorubicin hydrochloride],percent rescue from sAβ42s toxicity at 0.78 µM,"[1]; 0.78 μM compound, read-out: % B3T rescue",68%
same,percent rescue from sAβ42s toxicity at 0.78 µM,"[1]; 0.78 μM compound, read-out: % MAP2 rescue",74%
same,percent rescue from sAβ42s toxicity at 0.78 µM,"[1]; 0.78 μM compound, read-out: % Synapse rescue",52%
same,percent rescue from sAβ42s toxicity at 25 µM,[2]; [3],73%
same,percent rescue from sAβ42s toxicity at 25 µM,[2]; [4],-23%
same,percent rescue from sAβ42s toxicity at 25 µM,[2]; [5],-122%
same,percent rescue from sAβ42s toxicity at 25 µM,[2]; [6],-27%
same,percent rescue from sAβ42s toxicity at 50 µM,[2]; [7],101%
same,percent rescue from sAβ42s toxicity at 50 µM,[2]; [8],-39%
same,percent rescue from sAβ42s toxicity at 50 µM,[2]; [9],-124%
same,percent rescue from sAβ42s toxicity at 50 µM,[2]; [10],-27%
"CN(C)[C@@H]1C(O)=C(C(N)=O)C(=O)[C@@]2(O)C(O)=C3C(=O)c4c(O)ccc(Cl)c4[C@@H](O)[C@H]3C[C@@H]12 [Demeclocydine hydrochloride, Demeclocycline hydrochloride]",percent rescue from sAβ42s toxicity at 25 µM,[2]; [3],35%
same,percent rescue from sAβ42s toxicity at 25 µM,[2]; [4],6%
same,percent rescue from sAβ42s toxicity at 25 µM,[2]; [5],23%
same,percent rescue from sAβ42s toxicity at 25 µM,[2]; [6],15%
same,percent rescue from sAβ42s toxicity at 50 µM,[2]; [7],63%
same,percent rescue from sAβ42s toxicity at 50 µM,[2]; [8],33%
same,percent rescue from sAβ42s toxicity at 50 µM,[2]; [9],39%
same,percent rescue from sAβ42s toxicity at 50 µM,[2]; [10],27%
"O=c1cc(-c2ccccc2)oc2c(O)c(O)ccc12 [7,8-Dihydroxyflavone]",percent rescue from sAβ42s toxicity at 50 µM,[2]; [7],-14%
same,percent rescue from sAβ42s toxicity at 50 µM,[2]; [8],42%
same,percent rescue from sAβ42s toxicity at 50 µM,[2]; [9],6%
same,percent rescue from sAβ42s toxicity at 50 µM,[2]; [10],-2%
CN1C(=O)C(Cc2c[nH]c3ccccc23)NC1=S (centres unmarked) [Necrostatin-1],% B3T rescue,[2]; 50 μM compound,11%
same,% Cux2 rescue,[2]; 50 μM compound,10%
same,% MAP2 rescue,[2]; 50 μM compound,37%
same,% Synapse rescue,[2]; 50 μM compound,15%
CC(/C=C/C(=O)NO)=C\[C@@H](C)C(=O)c1ccc(N(C)C)cc1 [Trichostatin A],% B3T rescue,[1]; 12.50 μM compound,31%
same,% MAP2 rescue,[1]; 12.50 μM compound,−18%
same,% Synapse rescue,[1]; 12.50 μM compound,2%
same,% B3T rescue,[1]; 50.00 μM compound,41%
same,% MAP2 rescue,[1]; 50.00 μM compound,−13%
same,% Synapse rescue,[1]; 50.00 μM compound,1%
O=C1Nc2ccc(I)cc2/C1=C/c1cc(Br)c(O)c(Br)c1 [GW 5074],% B3T rescue,[2]; 6.25 μM compound,16%
same,% Cux2 rescue,[2]; 6.25 μM compound,95%
same,% MAP2 rescue,[2]; 6.25 μM compound,17%
same,% Synapse rescue,[2]; 6.25 μM compound,8%
same,% B3T rescue,[2]; 12.5 μM compound,9%
same,% Cux2 rescue,[2]; 12.5 μM compound,76%
same,% MAP2 rescue,[2]; 12.5 μM compound,12%
same,% Synapse rescue,[2]; 12.5 μM compound,6%
same,% B3T rescue,[2]; 25 μM compound,14%
same,% Cux2 rescue,[2]; 25 μM compound,115%
same,% MAP2 rescue,[2]; 25 μM compound,19%
same,% Synapse rescue,[2]; 25 μM compound,8%
same,% B3T rescue,[2]; 50 μM compound,48%
same,% Cux2 rescue,[2]; 50 μM compound,162%
same,% MAP2 rescue,[2]; 50 μM compound,54%
same,% Synapse rescue,[2]; 50 μM compound,8%
Cc1cc(C(=O)CN2CCCC2)c(C)n1-c1ccc(F)cc1 [IU1],% B3T rescue,[1]; 12.50 μM compound,41%
same,% MAP2 rescue,[1]; 12.50 μM compound,32%
same,% Synapse rescue,[1]; 12.50 μM compound,23%
Cn1cnc2c(NCc3ccccc3)nc(NCCO)nc21 [Olomoucine],percent rescue from sAβ42s toxicity at 50 µM,[1]; [11],69%
same,percent rescue from sAβ42s toxicity at 50 µM,[1]; [12],-8%
same,percent rescue from sAβ42s toxicity at 50 µM,[1]; [13],-15%
CCCCCCCCCCCCCCCCCC(=O)NCCc1ccc(O)c(O)c1 [STEARDA],% B3T rescue,[1]; 0.78 μM compound,27%
same,% MAP2 rescue,[1]; 0.78 μM compound,30%
same,% Synapse rescue,[1]; 0.78 μM compound,24%
same,% B3T rescue,[1]; 3.13 μM compound,33%
same,% MAP2 rescue,[1]; 3.13 μM compound,28%
same,% Synapse rescue,[1]; 3.13 μM compound,24%
same,% B3T rescue,[1]; 12.50 μM compound,33%
same,% MAP2 rescue,[1]; 12.50 μM compound,24%
same,% Synapse rescue,[1]; 12.50 μM compound,21%
Lycorine hydrochloride,% B3T rescue,[1]; 0.78 μM compound,37%
same,% MAP2 rescue,[1]; 0.78 μM compound,57%
same,% Synapse rescue,[1]; 0.78 μM compound,43%
same,% B3T rescue,[1]; 3.13 μM compound,77%
same,% MAP2 rescue,[1]; 3.13 μM compound,99%
same,% Synapse rescue,[1]; 3.13 μM compound,80%
same,% B3T rescue,[1]; 12.50 μM compound,83%
same,% MAP2 rescue,[1]; 12.50 μM compound,93%
same,% Synapse rescue,[1]; 12.50 μM compound,77%
same,% B3T rescue,[1]; 50.00 μM compound,79%
same,% MAP2 rescue,[1]; 50.00 μM compound,88%
same,% Synapse rescue,[1]; 50.00 μM compound,75%
Cc1c[nH]c(-c2cnc(NCCNc3ccc(C#N)cn3)nc2-c2ccc(Cl)cc2Cl)n1 [CHIR 99021 trihydrochloride],percent rescue from sAβ42s toxicity at 50 µM,[1]; [11],66%
same,percent rescue from sAβ42s toxicity at 50 µM,[1]; [12],58%
same,percent rescue from sAβ42s toxicity at 50 µM,[1]; [13],46%
